The values below come from patent publication US10501451B2, “Selective NR2B antagonists” (BRISTOL-MYERS SQUIBB COMPANY, priority 2015, dated 2019).

The Ki is a measure of affinity in units of concentration, obtained from inhibition or displacement.

The target in this assay is NR2B-subtype NMDA receptors (Rattus norvegicus (Rat), UniProt P35439+Q00960). Description: Radioligand binding assay (3H Ro 25-6981 competition, rat forebrain membranes). Particulars: 3H Ro 25-6981 (4 nM). As for the experimental part:
Radioligand Binding Assay. Binding experiments to determine binding to NR2B-subtype NMDA receptors were performed on forebrains of 8-10 weeks old male Sprague Dawley rats (Harlan, Netherlands) using ^3H Ro 25-6981 (Mutel V; Buchy D; Klingelschmidt A; Messer J; Bleuel Z; Kemp J A; Richards J G. Journal of Neurochemistry, 1998, 70(5):2147-2155. Rats were decapitated without anesthesia using a Guillotine (approved by animal ethics committee) and the harvested brains were snap-frozen and stored at −80° C. for 3-6 months for membrane preparation.
For membrane preparation, rat forebrains were thawed on ice for 20 minutes in homogenization buffer composed of 50 mM KH2PO4 (pH adjusted to 7.4 with KOH), 1 mM EDTA, 0.005% Triton X 100 and protease inhibitor cocktail (Sigma Aldrich). Thawed brains were homogenized using a Dounce homogenizer and centrifuged at 48000×g for 20 min. The pellet was resuspended in cold buffer and homogenized again using a Dounce homogenizer. Subsequently, the homogenate was aliquoted, snap-frozen and stored at −80° C. for not more than 3-4 months.
To perform the competition binding assay, thawed membrane homogenate was added to each well of a 96-well plate (20 μg/well). The experimental compounds were serially diluted in 100% DMSO and added to each row of the assay plate to achieve desired compound concentrations, keeping the DMSO concentration in the assay plate at 1.33% of the final reaction volume. Next, ^3H Ro 25-6981 (4 nM) was added to the assay plate. After incubation for 1 hr at room temperature, the membrane bound radioligand was harvested on to GF/B filter plates (treated with 0.5% PEI for 1 hr at room temperature). The filter plates were dried at 50° C. for 20 mins, incubated with microscint 20 for 10 minutes and finally, the counts were read on TopCount (Perkin Elmer).

Where two headings read alike, the source gives them in different places.

NR2B-subtype NMDA receptors, sequence (Q00960 27-1482, other chains not shown): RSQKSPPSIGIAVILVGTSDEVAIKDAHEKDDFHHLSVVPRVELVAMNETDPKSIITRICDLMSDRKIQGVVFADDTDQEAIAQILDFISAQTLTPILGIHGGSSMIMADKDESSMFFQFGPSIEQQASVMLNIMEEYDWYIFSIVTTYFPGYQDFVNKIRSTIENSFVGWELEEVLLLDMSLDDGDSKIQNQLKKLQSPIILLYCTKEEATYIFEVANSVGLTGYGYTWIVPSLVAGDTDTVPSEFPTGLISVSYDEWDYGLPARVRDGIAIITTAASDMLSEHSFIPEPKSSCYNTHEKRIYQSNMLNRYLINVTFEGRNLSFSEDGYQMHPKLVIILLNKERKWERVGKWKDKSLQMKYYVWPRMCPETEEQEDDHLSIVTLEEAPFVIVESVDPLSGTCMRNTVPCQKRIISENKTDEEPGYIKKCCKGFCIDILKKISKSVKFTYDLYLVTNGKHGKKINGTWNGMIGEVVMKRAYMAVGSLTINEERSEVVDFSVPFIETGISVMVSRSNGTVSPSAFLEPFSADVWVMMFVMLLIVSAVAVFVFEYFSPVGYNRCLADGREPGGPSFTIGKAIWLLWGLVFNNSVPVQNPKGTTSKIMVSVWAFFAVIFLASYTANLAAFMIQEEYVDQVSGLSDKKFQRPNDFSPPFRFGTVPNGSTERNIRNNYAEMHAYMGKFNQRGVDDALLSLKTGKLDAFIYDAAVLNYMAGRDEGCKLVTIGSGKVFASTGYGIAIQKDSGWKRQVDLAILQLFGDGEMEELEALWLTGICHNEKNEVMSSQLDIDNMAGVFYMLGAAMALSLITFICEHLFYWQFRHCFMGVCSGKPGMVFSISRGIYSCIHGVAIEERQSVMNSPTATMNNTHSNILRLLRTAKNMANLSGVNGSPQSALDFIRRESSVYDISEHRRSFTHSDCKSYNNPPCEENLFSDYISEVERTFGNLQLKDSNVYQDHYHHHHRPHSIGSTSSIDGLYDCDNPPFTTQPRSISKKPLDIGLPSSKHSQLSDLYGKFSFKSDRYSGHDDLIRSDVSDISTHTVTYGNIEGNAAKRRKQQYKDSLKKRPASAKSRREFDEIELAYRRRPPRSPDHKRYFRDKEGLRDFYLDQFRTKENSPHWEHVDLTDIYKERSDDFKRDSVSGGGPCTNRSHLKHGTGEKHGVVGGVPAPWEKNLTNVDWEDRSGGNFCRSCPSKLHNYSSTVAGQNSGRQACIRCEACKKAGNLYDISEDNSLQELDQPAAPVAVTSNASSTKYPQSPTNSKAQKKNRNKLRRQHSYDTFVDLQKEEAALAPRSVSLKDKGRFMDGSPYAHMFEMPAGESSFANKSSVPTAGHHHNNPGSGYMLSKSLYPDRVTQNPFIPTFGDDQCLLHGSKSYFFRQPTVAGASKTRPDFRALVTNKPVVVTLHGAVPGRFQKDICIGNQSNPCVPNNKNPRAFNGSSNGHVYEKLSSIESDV

Regarding `O=C1C(N2CC[C@@H](c3ccc(O)cc3)[C@H](F)C2)CCON1Cc1ccc(Cl)cc1` (single isomer, unassigned) [Example 12, P-1], for the setting “listed as 12, P-1, read-out: NR2B Binding Ki”, the Ki came to 3.9 nM.

Consider `Cc1ccc(CN2OCCC(N3CC[C@@H](c4ccc(O)cc4)[C@H](F)C3)C2=O)cc1` (single isomer, unassigned) [Example 5, P-2], for which the inhibitory constant (Ki) (listed as 5, P-2, read-out: NR2B Binding Ki) turned out to be 4.37 nM.

As to `Cc1ccc(CN2OCCC(N3CCN(c4ccc(O)cn4)CC3)C2=O)cc1` (single isomer, unassigned) [Example 8, P-2, 4-(4-(5-hydroxypyridin-2-yl)piperazin-1-yl)-2-(4-methylbenzyl)-1,2-oxazinan-3-one], for the setting “listed as 8, P-2, read-out: NR2B Binding Ki”, the inhibitory constant (Ki) was 18.8 nM.

On to `Cc1ccc(CN2OCCC(N3CCC(c4ccc(O)c(F)c4)C(F)C3)C2=O)cc1` (single isomer, unassigned) [Example 11, P-2, 4-(3-fluoro-4-(3-fluoro-4-hydroxyphenyl)piperidin-1-yl)-2-(4-methylbenzyl)-1,2-oxazinan-3-one], for which, where the note is “listed as 11, P-2, read-out: NR2B Binding Ki”, the Ki is 39.3 nM.

In the case of `Cc1ccc(CN2OCCC(N3CC[C@H](c4ccc(O)cc4)[C@@H](F)C3)C2=O)cc1` (single isomer, unassigned) [Example 7, P-2], the Ki (listed as 7, P-2, read-out: NR2B Binding Ki) came out at 4.98 nM.

As for `Cc1ccc(CN2OCC(N3CCN(c4ccc(O)cn4)CC3)C2=O)cc1` (single isomer, unassigned) [Example 10, P-2, 4-(4-(5-hydroxypyridin-2-yl)piperazin-1-yl)-2-(4-methylbenzyl)isoxazolidin-3-one], for the setting “listed as 10, P-2, read-out: NR2B Binding Ki”, the inhibition constant (Ki) was 10.7 nM.

`O=C1C(N2CC[C@@H](c3ccc(O)cc3)[C@H](F)C2)CCON1Cc1ccc(F)cc1` (single isomer, unassigned) [Example 15, P-2]: the Ki (listed as 15, P-2, read-out: NR2B Binding Ki) stood at 12.5 nM.

`O=C1C(N2CCC(c3ccc(O)c(F)c3)C(F)C2)CCON1Cc1ccc(F)cc1` (single isomer, unassigned) [Example 13, P-1, 4-(3-fluoro-4-(3-fluoro-4-hydroxyphenyl)piperidin-1-yl)-2-(4-fluorobenzyl)-1,2-oxazinan-3-one]: the Ki (listed as 13, P-1, read-out: NR2B Binding Ki) amounted to 367 nM.

`Cc1ccc(CN2OCC(N3CCC(c4ccc(O)cn4)CC3)C2=O)cc1` (single isomer, unassigned) [Example 9, P-2, 4-(4-(5-hydroxypyridin-2-yl)piperidin-1-yl)-2-(4-methylbenzyl)isoxazolidin-3-one]: for the setting “listed as 9, P-2, read-out: NR2B Binding Ki”, the Ki stood at 12.1 nM.

For the compound `Cc1ccc(CN2OCCC(N3CC[C@H](c4ccc(O)cc4)[C@@H](F)C3)C2=O)cc1` (single isomer, unassigned) [Example 7, P-1], the Ki (listed as 7, P-1, read-out: NR2B Binding Ki) came out at 125 nM.

On to `Cc1ccc(CN2OCCC(N3CCN(c4ccc(O)cn4)CC3)C2=O)cc1` (single isomer, unassigned) [Example 8, P-1, 4-(4-(5-hydroxypyridin-2-yl)piperazin-1-yl)-2-(4-methylbenzyl)-1,2-oxazinan-3-one], for which, where the note is “listed as 8, P-1, read-out: NR2B Binding Ki”, the Ki worked out at 57.8 nM.

For `O=C1C(N2CC[C@@H](c3ccc(O)cc3)[C@H](F)C2)CCON1Cc1ccc(F)cc1` (single isomer, unassigned) [Example 15, P-1], for the setting “listed as 15, P-1, read-out: NR2B Binding Ki”, the Ki is 393 nM.

On to `Cc1ccc(CN2OCCC(N3CCC(c4ccc(O)cn4)CC3)C2=O)cc1` (single isomer, unassigned) [Example 6, P-2, 4-(4-(5-hydroxypyridin-2-yl)piperidin-1-yl)-2-(4-methylbenzyl)-1,2-oxazinan-3-one], for which, where the note is “listed as 6, P-2, read-out: NR2B Binding Ki”, the Ki turned out to be 8.16 nM.

As to `Cc1ccc(CN2OCCC(N3CC[C@@H](c4ccc(O)cc4)[C@H](F)C3)C2=O)cc1` (single isomer, unassigned) [Example 5, P-1], the Ki (listed as 5, P-1, read-out: NR2B Binding Ki) worked out at 144 nM.

On to `O=C1C(N2CCC(c3ccc(O)c(F)c3)C(F)C2)CCON1Cc1ccc(Cl)cc1` (single isomer, unassigned) [Example 14, P-1, 2-(4-chlorobenzyl)-4-(3-fluoro-4-(3-fluoro-4-hydroxyphenyl)piperidin-1-yl)-1,2-oxazinan-3-one], for which the Ki (listed as 14, P-1, read-out: NR2B Binding Ki) was 98.7 nM.

In the case of `O=C1C(N2CCC(c3ccc(O)c(F)c3)C(F)C2)CCON1Cc1ccc(Cl)cc1` (single isomer, unassigned) [Example 14, P-2, 2-(4-chlorobenzyl)-4-(3-fluoro-4-(3-fluoro-4-hydroxyphenyl)piperidin-1-yl)-1,2-oxazinan-3-one], where the note is “listed as 14, P-2, read-out: NR2B Binding Ki”, the Ki is 2.8 nM.

Consider `O=C1C(N2CCC(c3ccc(O)cc3)CC2)CON1Cc1ccc(F)cc1` (single isomer, unassigned) [Example 1, P-2, 2-(4-fluorobenzyl)-4-(4-(4-hydroxyphenyl)piperidin-1-yl)isoxazolidin-3-one], for which the Ki (listed as 1, P-2, read-out: NR2B Binding Ki) worked out at 4.08 nM.

Take `Cc1ccc(CN2OCCC(N3CCC(c4ccc(O)c(F)c4)C(F)C3)C2=O)cc1` (single isomer, unassigned) [Example 11, P-1, 4-(3-fluoro-4-(3-fluoro-4-hydroxyphenyl)piperidin-1-yl)-2-(4-methylbenzyl)-1,2-oxazinan-3-one]: the inhibitory constant (Ki) (listed as 11, P-1, read-out: NR2B Binding Ki) was 3.06 nM.

As for `O=C1C(N2CCC(c3ccc(O)cc3)CC2)CON1Cc1ccc(F)cc1` (single isomer, unassigned) [Example 1, P-1, 2-(4-fluorobenzyl)-4-(4-(4-hydroxyphenyl)piperidin-1-yl)isoxazolidin-3-one], the Ki (P-1, read-out: NR2B Binding Ki) stood at 305 nM.

In the case of `O=C1C(N2CCC(c3ccc(O)c(F)c3)C(F)C2)CCON1Cc1ccc(F)cc1` (single isomer, unassigned) [Example 13, P-2, 4-(3-fluoro-4-(3-fluoro-4-hydroxyphenyl)piperidin-1-yl)-2-(4-fluorobenzyl)-1,2-oxazinan-3-one], the Ki (listed as 13, P-2, read-out: NR2B Binding Ki) was found to be 4.03 nM.

In the case of `Cc1ccc(CN2OCCC(N3CCC(c4ccc(O)cn4)CC3)C2=O)cc1` (single isomer, unassigned) [Example 6, P-1, 4-(4-(5-hydroxypyridin-2-yl)piperidin-1-yl)-2-(4-methylbenzyl)-1,2-oxazinan-3-one], the Ki (listed as 6, P-1, read-out: NR2B Binding Ki) was 6.53 nM.

Turning to `Cc1ccc(CN2OCC(N3CCC(c4ccc(O)cc4)CC3)C2=O)cc1` (single isomer, unassigned) [Example 2, P-1, 4-(4-(4-hydroxyphenyl)piperidin-1-yl)-2-(4-methylbenzyl)isoxazolidin-3-one], under “listed as 2, P-1, read-out: NR2B Binding Ki”, the Ki worked out at 112 nM.

Take `Cc1ccc(CN2OCC(N3CCC(c4ccc(O)cn4)CC3)C2=O)cc1` (single isomer, unassigned) [Example 9, P-1, 4-(4-(5-hydroxypyridin-2-yl)piperidin-1-yl)-2-(4-methylbenzyl)isoxazolidin-3-one]: the Ki (listed as 9, P-1, read-out: NR2B Binding Ki) came to 139 nM.

As to `O=C1C(N2CC[C@@H](c3ccc(O)cc3)[C@H](F)C2)CCON1Cc1ccc(Cl)cc1` (single isomer, unassigned) [Example 12, P-2], the Ki (listed as 12, P-2, read-out: NR2B Binding Ki) is 150 nM.
